Assay: ABA content in fifth instar larvae of colonies fed ABA syrup
Assay type: in vivo, honey bees
Conditions: 10 μM ABA in sucrose syrup (2:1); fifth instar larvae (L5), two months after starting treatment
Protocol: ABA was added to sucrose syrup (2:1, sucrose:water) to achieve a concentration of 10 μM ABA. Two groups of small colonies of honey bees were used to test if the compound was reaching the bee larvae. One group of colonies was exposed to the solution by way of adding the solution to feed the bees in the beehive, while the other was not. In order to corroborate that the ABA supplemented in the syrup actually reached the larvae, the ABA content was measured in fifth instar larvae (L5) two months after starting treatment.

For CC1=CC(=O)CC(C)(C)[C@@]1(O)/C=C/C(C)=C\C(=O)O [ABA, (2Z,4E)-5-[(1S)-1-hydroxy-2,6,6-trimethyl-4-oxocyclohex-2-en-1-yl]-3-methylpenta-2,4-dienoic acid], the “concentration of ABA in larvae compared to the control colony” value was 28 x.
